Data on one compound can be found in patent publication US20260364101A1, “OLEUROPEIN IN THE MANAGEMENT OF CANCER” (FUNDACIÓN MIGUEL SERVET, priority 2023, published 2026).

For data set [1], the system named is CD4 T cells. The data set is described as follows: mixed lymphocyte reaction (MLR) with MDSCs as stimulator cells (FIG. 1c,d). The format is cell-based, mouse. The protocol:
MLR were carried out following standard procedures. Briefly, 100,000 MDSCs or TAMs from C57BL/6 mice were co-cultured in 96-well plates with 100,000 lymphocytes from BALB/c mice. Co-cultured cells were treated with 50 µM oleuropein and compared with control vehicle. After 5 days, T-lymphocyte activation, differentiation and proliferation were assessed by flow cytometry. T-cell activation and proliferation markers (Ki-67) and pro-inflammatory cytokine production (IL-2 and IFNγ) were evaluated by flow cytometry in CD4 and CD8 T cells as described before.
Surface and intracellular staining were carried out as described before with the following fluorochrome-conjugated antibody clones: AF488 anti-CD49d (R1-2), PE anti-CD4 (GK1.5), APCanti-CD8(53-6.7), brilliant Violet 510™ anti-I-A/I-E (M5/114.15.2,PE/Cyanine7anti-Ly-6G (1A8), and APC anti-CD80 (16-10A1) (Biolegend), FITC anti-IL-12 (C15.6) and BV421 anti-IL-2 (JES6-5H4) (BD Bioscience), APC-Vio® 770 anti-Ly-6C (REA796), PE REAfinity™ anti-F4/80 (REA126), and APC anti-CD68 (REA886) (Miltenyi), PerCP-Cyanine5.5 Anti-Human/Mouse CD11b (M1/70) (Tonbo), and AF488 anti-IFNγ (Clone XMG1.2) (BD Pharmigen). For human cells, it was used the following fluorochrome-conjugated antibodies: PerCP-Cy5.5-anti-CD11b (integrina alfa M) (M1/70), Violet Fluor 450 anti-CD14 antibody (61D3) (Tonbo), PE anti-CD115 (CSF-1R) (9-4D2-1E4) (Biolegend), PE-Cy™7 anti-CD11c (Clone B-ly6) (BD Bioscience), and APC anti-HLA-DR (REA517) (Miltenyi).

For data set [2], the system named is TAMCs. The data set is described as follows: quantitative proteomics and Ingenuity Pathway Analysis of TAMCs (FIG. 2). The format is cell-based, mouse. As for the experimental part: (§1) Immunosuppressive myeloid cell subsets resembling tumor-infiltrating subsets (g-MDSCs, m-MDSCs and TAMs) were differentiated from mouse bone marrow following published procedures using conditioning medium produced by LLC tumor cells stably expressing GMCSF and MCSF cells. g- and m-MDSCs were purified using the myeloid-derived suppressor cell isolation kit (Miltenyi Biotec, Bergisch, Germany) according to manufacturer's recommendations. MDSCs and TAMs were seeded with 500 nM BML-275 or 50 μM oleuropein and incubated for seven days.
A unique proteomic experiment was carried out with five biological replicates per sample (m-MDSC, g-MDSC and TAM). Cells were homogenized in a lysis buffer containing 7 M urea, 2 M thiourea 50 mM DTT. The homogenates were spun down at 14000 g for 1 h at 15 °C. Before proteomic analysis, protein extracts were diluted with Laemmli sample buffer in 100 μL and loaded into a 0.75 mm thick polyacrylamide gel with a 4% stacking gel casted over a 12.5% resolving gel. The run was stopped as soon as the front entered 3 mm into the resolving gel so that the whole proteome became concentrated in the stacking/resolving gel interface. Bands were stained with Coomassie Brilliant Blue, excised from the gel and protein enzymatic cleavage was carried out with trypsin (Promega; 1:20, w/w) at 37 °C for 16 h as previously described. Purification and concentration of peptides was performed using C18 Zip Tip Solid Phase Extraction (Millipore).
Peptide mixtures were separated by reverse phase chromatography using an UltiMate 3000 UHLPC System (Thermo Scientific) fitted with an Aurora packed emitter column (lonopticks, 25 cm×75 μm ID, 1.6 μm C18). Samples were first loaded for desalting and concentration into an Acclaim PepMap column (ThermoFisher, 0.5 cm×300 μm ID, 5 μm C18) packed with the same chemistry as the separating column. Mobile phases were 100% water 0.1% formic acid (FA) (buffer A) and 100% Acetonitrile 0.1% FA (buffer B). Column gradient was developed in a 120 min two step gradient from 5% B to 20% B in 90 min and 20% B to 32% B in 30 min. Column was equilibrated in 95% B for 10 min and 5% B for 20 min. During the whole process, the precolumn was in line with the column and the flow maintained all along the gradient at 300 nl/min. The column temperature was maintained at 40 °C using an integrated column oven (PRSO-V2, Sonation, Biberach, Germany) and interfaced online with the Orbitrap Exploris 480 MS. Spray voltage were set to 2 kV, funnel RF level at 40, and heated capillary temperature at 300 °C. For DDA experiments full MS resolutions were set to […] at m/z 200 and full MS AGC target was set to Standard with an IT mode Auto. Mass range was set to 375-1500. AGC target value for fragment spectra was set to Standard with a resolution of 15,000 and 3 seconds for cycle time. The intensity threshold was kept at 8E3. Isolation width was set at 1.4 m/z. Normalized collision energy was set at 30%. All data were acquired in centroid mode using positive polarity and peptide match was set to off, and isotope exclusion was on.
Raw files were processed with MaxQuant v1.6.17.0 using the integrated Andromeda Search engine. All data were searched against a target/decoy version of the mouse Uniprot Reference Proteome with March 2021 release. First search peptide tolerance was set to 20 ppm, main search peptide tolerance was set to 4.5 ppm. Fragment mass tolerance was set to 20 ppm. Trypsin was specified as enzyme, […] carbamidomethylation of cysteine was specified as fixed modification and peptide N-terminal acetylation, oxidation of methionine, deamidation of asparagine and glutamine and pyro-glutamate formation from glutamine and glutamate were considered variable modifications with a total of two variable modifications per peptide. […]

For data set [3], the system named is TAMs. Put plainly: morphology of ex vivo TAM cultures, phase contrast micrographs (FIG. 2a). The settings on record: TAMs treated with oleuropein. The class given is cell-based, mouse. The protocol: as §1
For data set [4] the following is noted: to elenolic acid and glucose; cited from earlier work.
[5] abbreviates: IPA, TAMCs, listed as Oleuropein.

“Also recorded” adds a separate entry of the source.

Turning to `C/C=C1/[C@H](O[C@@H]2O[C@H](CO)[C@@H](O)[C@H](O)[C@H]2O)OC=C(C(=O)OC)[C@H]1CC(=O)OCCc1ccc(O)c(O)c1` [oleuropein], the “T cell activation capacities” value in data set [1] (oleuropein-reprogrammed MDSCs and TAMs) was “enhanced T cell activation capacities”. The immune cell activation entry in data set [1] (particularly CD4 T cell activation) is listed as “induces an immune cell activation”. In addition, the “CD4 T cell stimulation assessed by IFNγ and IL-2 production” value in data set [1] (treated MDSCs as stimulators, 5 days) is given as “potently stimulated”. Moreover, in data set [2] (IPA, TAMCs), the CD40 result is “down-regulated”, the “Fatty acid β-oxidation I signalling” value is “up-regulated; also recorded: Regulated expression”, the IL-9 signalling result was “down-regulated” and the LXR/RXR signalling entry was “up-regulated; also recorded: Regulated expression”. Also, in data set [2] (IPA, TAMCs), the RAN signalling entry was “down-regulated”, the TREM1 result was “inhibition; also recorded: inhibited”, the “cyclic adenosine monophosphate (cAMP) pathway” value is listed as “inhibition; also recorded: inhibited” and the estrogen signalling entry is listed as “downregulated”. For the same compound, in data set [2] (IPA, TAMCs), the “global reprogramming of TAMCs / immunosuppressive pathways” value is given as “major reprogramming of intracellular pathways; also recorded: reprograms the immunosuppressive properties of TAMCs; also recorded: major global reprogramming of TAMCs by deactivating immunosuppressive pathways”; the insulin signalling entry is on record as “downregulated”; the “pathways regulating lipid metabolism (Sirtuin, polyamines, PPAR-a/RXR-a)” value is “altered”. Further, in data set [2] (setting [5]), the TREM1 entry is “reduced” and the “cyclic adenosine monophosphate (cAMP) pathway” value was “down-regulated”. The proteomic profile result in data set [2] (oleuropein-treated vs untreated, FDR<1%) is recorded as “distinct proteomic profiles”. For the same compound, the morphology / phenotype entry in data set [3] was “acquired an M1-like phenotype”. Also, the “decomposition by acid or enzymic hydrolysis” value in data set [4] is on record as “decomposes easily”.
